From the NIST ThermoML archive (doi:10.1016/j.jct.2018.12.042)
Numbers after ± are expanded uncertainties.

Conditions: for surface tension liquid-gas: Pendant drop shape; for mass density: 101.33 kPa, Liquid, Vibrating tube method

surface tension liquid-gas (288.15 K) [mN/m] | surface tension liquid-gas (318.15 K) [mN/m] | Compound | surface tension liquid-gas (293.15 K) [mN/m] | surface tension liquid-gas (298.15 K) [mN/m] | surface tension liquid-gas (303.15 K) [mN/m] | surface tension liquid-gas (308.15 K) [mN/m] | surface tension liquid-gas (313.15 K) [mN/m] | mass density (288.15 K) [kg/m3] | mass density (293.15 K) [kg/m3] | mass density (298.15 K) [kg/m3] | mass density (303.15 K) [kg/m3] | mass density (308.15 K) [kg/m3] | mass density (313.15 K) [kg/m3] | mass density (318.15 K) [kg/m3] | mass density (328.15 K) [kg/m3]
 |  | BrCCBr [1,2-dibromoethane] | 38.81 ± 0.7 | 38.07 ± 0.69 | 37.48 ± 0.68 | 36.75 ± 0.67 | 36.1 ± 0.66 |  |  |  |  |  |  |  | 
 |  | ClCCCl [1,2-dichloroethane] | 28 ± 0.52 | 27.57 ± 0.51 | 27.06 ± 0.5 | 26.54 ± 0.49 | 26.02 ± 0.48 |  |  |  |  |  |  |  | 
 |  | BrCCCBr [1,3-dibromopropane] | 39.66 ± 0.72 | 38.95 ± 0.71 | 38.33 ± 0.7 | 37.6 ± 0.68 | 37.12 ± 0.68 |  |  |  |  |  |  |  | 
 |  | ClCCCCl [1,3-dichloropropane] | 31.22 ± 0.57 | 30.77 ± 0.57 | 30.2 ± 0.56 | 29.36 ± 0.54 | 28.7 ± 0.53 | 1189.09 ± 1.1 | 1184.88 ± 1.1 | 1178.97 ± 1.1 | 1173.1 ± 1.1 | 1167.26 ± 1.1 | 1161.46 ± 1.1 | 1154.88 ± 1.1 | 1142.62 ± 1.1
 |  | BrCCCCBr [1,4-dibromobutane] | 39.91 ± 0.72 | 39.46 ± 0.72 | 38.92 ± 0.71 | 38.29 ± 0.7 | 37.67 ± 0.68 |  |  |  |  |  |  |  | 
 |  | ClCCCCCl [1,4-dichlorobutane] | 33.73 ± 0.62 | 33.15 ± 0.61 | 32.55 ± 0.6 | 32.1 ± 0.59 | 31.59 ± 0.58 |  |  |  |  |  |  |  | 
 |  | BrCCCCCBr [1,5-dibromopentane] | 39.37 ± 0.71 | 38.65 ± 0.7 | 38.16 ± 0.69 | 37.6 ± 0.68 | 37.23 ± 0.68 |  |  |  |  |  |  |  | 
 |  | ClCCCCCCl [1,5-dichloropentane] | 35.02 ± 0.64 | 34.43 ± 0.63 | 33.85 ± 0.62 | 33.22 ± 0.61 | 32.78 ± 0.6 | 1103.31 ± 1 | 1100.06 ± 1 | 1095.01 ± 1 | 1089.95 ± 1 | 1084.89 ± 1 | 1079.84 ± 1 | 1074.67 ± 1 | 1064.63 ± 1
 |  | BrCCCCCCBr [1,6-dibromohexane] | 38.92 ± 0.71 | 38.36 ± 0.7 | 37.78 ± 0.69 | 37.21 ± 0.68 | 36.63 ± 0.67 |  |  |  |  |  |  |  | 
 |  | ClCCCCCCCl [1,6-dichlorohexane] | 35 ± 0.71 | 34.31 ± 0.69 | 33.73 ± 0.68 | 33.09 ± 0.67 | 32.7 ± 0.66 |  |  |  |  |  |  |  | 
 |  | BrCBr [dibromomethane] | 38.5 ± 0.7 | 37.76 ± 0.69 | 37.09 ± 0.68 | 36.32 ± 0.66 | 35.55 ± 0.65 |  |  |  |  |  |  |  | 
26.34 ± 0.49 | 24.12 ± 0.45 | CCCCCCO [hexan-1-ol] | 26.06 ± 0.48 | 25.71 ± 0.48 | 25.34 ± 0.47 | 24.9 ± 0.5 | 24.52 ± 0.46 |  |  | 815.18 ± 1 |  |  |  |  | 
 | 23.28 ± 0.44 | CCCCCO [pentan-1-ol] | 25.17 ± 0.47 | 24.85 ± 0.46 | 24.4 ± 0.5 | 23.96 ± 0.45 | 23.62 ± 0.44 |  |  | 810.84 ± 1 |  |  |  |  | 
73.43 ± 1.2 |  | O [water] | 72.84 ± 1.2 | 72.14 ± 1.2 |  |  |  |  |  |  |  |  |  |  | 
